Data taken from patent US9040565B2, “1H-benzimidazole-5-carboxamides as anti-inflammatory agents” (Orexo AB, priority 2008, dated 2015).

Biological target: T1, recombinant human mPGES-1 (Homo sapiens, UniProt O14684)
T1 construct: made in house; host or cells: Rosetta E. coli (microsomal/membrane fraction)
T1 sequence (O14684 1-152): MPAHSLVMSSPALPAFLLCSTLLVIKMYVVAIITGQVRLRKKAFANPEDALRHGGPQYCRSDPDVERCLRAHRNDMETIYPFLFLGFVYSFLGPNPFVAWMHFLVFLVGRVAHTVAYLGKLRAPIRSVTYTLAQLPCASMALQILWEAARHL
Test: mPGES-1 inhibition, HTRF detection of PGE2 (Biological Test)
Type: biochemical
Protocol: Microsomes from Rosetta E. coli bacteria expressing recombinant human mPGES-1 is dissolved in 0.1 M KPi pH 7.4 buffer containing 2.5 mM GSH. 50 μl of the enzyme is subsequently dispensed in a 384-well plate. 0.5 μl of the inhibitor dissolved in DMSO at is thereafter added to each well and incubated for 25 minutes at room temperature.
Subsequently, 2 μl of PGH2 dissolved in an appropriate solvent is added to each well and after one minute the acidified stop solution containing FeCl2 is added. 4 μl of the total volume is transferred to a separate plate and diluted 750-fold in two separate steps before HTRF detection of PGE2.
The HTRf detection is performed by the use of a commercially available kit from CisBio essentially according to the manufacturer's protocol. Briefly, 10 μl of the diluted sample is transferred to a white 384-well plate. 5 μl of d2 and 5 μl Eu3+-Cryptate labeled anti-PGE2 is added to each well containing samples by the use of a Multidrop. The plate is covered with a plastic self-adhesive film, centrifuged at 1200 rpm for 1 minute and subsequently stored at +4° C. over night.
After over night incubation the fluorescence is measured by the use of an appropriate microplate reader. The fluorescence of europium cryptate, and d2 are measured using the following excitation and emission wavelength, europium cryptate: λmax^ex=307 nm, λmax^em=620 nm and d2: λmax^ex=620 nm, λmax^em=665 nm), respectively. The extent of the specific FRET is measured as a ratio of the emission intensity at 665 nm vs. that at 620 nm. A standard curve using synthetic PGE2 is used to quantify the amount of PGE2 in unknown samples.

Compound | inhibition at 10 µM [%]
O=C(NCC(F)(F)C(F)(F)C(F)(F)C(F)(F)F)c1cc2nc(Nc3ncc(Cl)cc3Cl)[nH]c2cc1OC(F)F [Example 700, 2-(3,5-Dichloro-pyridin-2-yl-amino)-N-(2,2,3,3,4,4,5,5,5-nonafluoro-pentyl)-6-(difluoromethoxy)-1H-benzimidazole-5-carboxamide] | 98
O=C(N[C@H]1CC[C@H](C(F)(F)F)CC1)c1cc2nc(Nc3c(Cl)cncc3Cl)[nH]c2cc1OC(F)F [Example 701, 2-(3,5-Dichloropyridin-4-ylamino)-N-(trans-4-trifluoromethyl-cyclohex-1-yl)-6-difluoromethoxy-1H-benzimidazole-5-carboxamide] | 100
O=C(Nc1cc(C(F)(F)F)ccn1)c1cc2nc(Nc3c(Cl)cncc3Cl)[nH]c2cc1OC(F)F [Example 702] | 95
O=C(Nc1ccc(Br)cc1)c1cc2nc(Nc3c(Cl)cncc3Cl)[nH]c2cc1OC(F)F [Example 703, 2-(3,5-Dichloropyridin-4-ylamino)-N-(4-bromo-phenyl)-6-difluoromethoxy-1H-benzimidazole-5-carboxamide] | 98
CCOc1cc2c(cc1C(=O)Nc1ccc(Br)cc1)nc(Nc1c(Cl)cncc1Cl)n2CC(F)(F)F [Example 704] | 100
CCOc1cc2c(cc1C(=O)Nc1cc(C(F)(F)F)ccn1)nc(Nc1c(Cl)cncc1Cl)n2CC(F)(F)F [Example 705] | 94
CC(F)(F)c1cccc(NC(=O)c2cc3nc(Nc4c(Cl)cncc4Cl)[nH]c3cc2OCC(F)(F)F)n1 [Example 706] | 100
O=C(Nc1ccc(F)c(C(F)F)n1)c1cc2nc(Nc3c(Cl)cncc3Cl)[nH]c2cc1OCC(F)(F)F [Example 707, 2-(3,5-Dichloropyridin-4-ylamino)-N-(6-difluoromethyl-5-fluoro-pyridin-2-yl)-6-(2,2,2-trifluoroethoxy)-1H-benzimidazole-6-carboxamide] | 100

Second part, the compound after the results:

inhibition at 10 µM [%] | Compound
100 | O=C(Nc1cccc(C(F)F)n1)c1cc2nc(Nc3c(Cl)cncc3Cl)[nH]c2cc1OCC(F)(F)F [Example 708, 2-(3,5-Dichloropyridin-4-ylamino)-N-(6-difluoromethyl-pyridin-2-yl)-6-(2,2,2-trifluoroethoxy)-1H-benzimidazole-6-carboxamide]
100 | CCOc1cc2[nH]c(Nc3c(Cl)cncc3Cl)nc2cc1C(=O)Nc1cc(C)cc(C(F)(F)F)n1 [Example 709]
98 | CCOc1cc2[nH]c(Nc3c(Cl)cncc3Cl)nc2cc1C(=O)Nc1ccc(F)c(C(F)F)n1 [Example 710, 2-(3,5-Dichloropyridin-4-ylamino)-N-(5-fluoro-6-difluoromethyl-pyridin-2-yl)-6-ethoxy-1H-benzimidazole-6-carboxamide]
98 | O=C(NCc1ncccc1C(F)F)c1cc2nc(Nc3c(Cl)cncc3Cl)[nH]c2cc1OCC(F)(F)F [Example 711, 2-(3,5-Dichloropyridin-4-ylamino)-N-((3-difluoromethyl-pyridin-2-yl)-methyl)-6-(2,2,2-trifluoro-ethoxy)-1H-benzimidazole-5-carboxamide]
